Measurements as given in US4540689A, “Penicillin derivative” (Kureha Kagaku Kogyo Kabushiki Kaisha, priority 1981, dated 1985).
Converted amounts (≈) assume the structure as drawn.

Experiments:
Escherichia coli = test: Effect on intestinal bacterial colonies, E. coli count in feces; type: in vivo; conditions: female ICR mice, oral 500 mg/kg/day for two days, first day after administration; before administration 6.4
Protocol: (§1) Effect of the present compounds on the intestinal bacterial colonies was examined.
(§2) Each of the present compounds was orally administered to mice (one group consisting of five female ICR mice of 6-week-old) for two consecutive days at a dose of 500 mg/kg/day.
(§3) Before and on the first day after the administration, feces of each mouse was collected and diluted with an anerobic diluent (phosphoric buffer solution) of 100 times volume and ground. 0.1 ml of the diluted and ground feces was smeared on each culture medium shown in Table 1 and cultured aerobically or anaerobically (according to the anaerobic glove box method) under each condition shown in Table 1.
DHL agar aerobic, 37° C., one day

Pseudomonas aeruginosa = test: Effect on intestinal bacterial colonies, Ps. aeruginosa count in feces; type: in vivo; conditions: female ICR mice, oral 500 mg/kg/day for two days, first day after administration; before administration <3.0
Protocol: as §1, §2, §3
NAC agar aerobic, 37° C., one day

Streptococcus spp. = test: Effect on intestinal bacterial colonies, Streptococcus count in feces; type: in vivo; conditions: female ICR mice, oral 500 mg/kg/day for two days, first day after administration; before administration 6.8
Protocol: as §1, §2, §3
TATAC agar aerobic, 37° C., one day

[1] = test system: Lactobacillus acidophilus; test: Effect on intestinal bacterial colonies, L. acidophilus count in feces; type: in vivo; conditions: female ICR mice, oral 500 mg/kg/day for two days, first day after administration; before administration 9.0
Protocol: as §1, §2, §3
Lactobacillus acidophilus
LBS agar anaerobic, 37° C., five

Lactobacillus bifidus = test: Effect on intestinal bacterial colonies, L. bifidus count in feces; type: in vivo; conditions: female ICR mice, oral 500 mg/kg/day for two days, first day after administration; before administration 8.4
Protocol: as §1, §2, §3
BS agar anaerobic, 37° C., five

Bacteroides = test: Effect on intestinal bacterial colonies, Bacteroides count in feces; type: in vivo; conditions: female ICR mice, oral 500 mg/kg/day for two days, first day after administration; before administration 8.3
Protocol: as §1, §2, §3
Bacteroides NBGT agar anaerobic, 37° C., five

[2] = test system: Escherichia coli IFO 12734; test: Antibacterial activity (MIC), agar plate, E. coli; type: cell-based; conditions: E. coli IFO 12734, Mueller-Hinton agar, 37° C., 18 to 24 hours; unit assumed
Protocol: (§4) Antibacterial activity of the present compounds was examined as follows.
(§5) Antibacterial activity of each of the present compounds was examined against the following two bacteria according to the standard method of Japan Society of Chemotherapy:
Escherichia coli IFO 12734 and
(§6) Each bacterial strain was inoculated into the Mueller-Hinton's culture medium and cultured at 37° C. for 18 to 48 hours. The culture medium was diluted so as to contain 1×10^6 cells of the bacteria per one ml, and the obtained medium was used as the bacterial specimen.
(§7) Agar plates were prepared by adding one part by weight of each solution of the present compounds having a predetermined concentration to nine parts by weight of Mueller-Hinton's culture medium.
(§8) A loopful amount of the bacterial specimen prepared above was smeared to make a streak of about 2 cm on each agar plate and cultured at 37° C. for 18 to 24 hours. The minimum concentration for completely inhibiting proliferation of the bacteria (referred as MIC) was determined.

[3] = test system: Staphylococcus aureus IAM 1011; test: Antibacterial activity (MIC), agar plate, Staph. aureus; type: cell-based; conditions: Staph. aureus IAM 1011, Mueller-Hinton agar, 37° C., 18 to 24 hours; unit assumed
Protocol: as §4, §5
Staphylococcus aureus IAM 1011
as §6, §7, §8

[4] = test system: Staphylococcus aureus IAM 1011; test: Activation by rat liver homogenate (S-9 mix), penicillin cup proliferation-inhibiting circle; type: cell-based; conditions: compound solution 100 μg/ml, ratio of circle diameter to conventional penicillin antibiotic; for Proliferation-inhibiting index (%), after adding S-9 mix: incubated with S-9 mix 37° C., 20 min; for Proliferation-inhibiting index (%), before adding S-9 mix: phosphoric buffer control without S-9
Protocol: As an enzyme for activating metabolism, a rat liver homogenate (S-9, manufactured by Oriental Yeast Company, Japan) was used in the following composition per one ml (hereinafter referred to as S-9 mix).
0.1 ml of each solution of the present compounds at a concentration of 100 μg/ml was mixed with 0.9 ml of S-9 mix or 0.9 ml of 0.1M phosphoric buffer solution (as a control) and the obtained mixture was incubated at 37° C. for 20 min with shaking.
Staphylococcus aureus IAM 1011 was inoculated into a Mueller-Hinton's culture medium and cultured at 37° C. for 18 hours. The culture medium was adjusted to a cell concentration of 1×10^8 per one ml and mixed with 50 times by volume of Mueller-Hinton's agar culture medium to obtain an agar plate.
A penicillin cup of 8 mm in diameter was placed on the agar plate prepared above, and into the cup 0.1 ml of the mixture was introduced and allowed to stand at 4° C. for 2 hours and then cultured at 37° C. for 18 hours to measure the diameter of a circle in which the proliferation of bacteria was inhibited (proliferation-inhibiting circle). In Table 4, the proliferation-inhibitingindex is shown with the ratio (%) of the diameter of the proliferation-inhibiting circle obtained by using each of the present compounds to that obtained by using the comparative compound (conventionalpenicillin antibiotic).

| Structure (SMILES) | Logarithmic value of the number of bacterial cells per one gram of feces, E. coli (Escherichia coli) | Logarithmic value of the number of bacterial cells per one gram of feces, Ps. aeruginosa (Pseudomonas aeruginosa) | Logarithmic value of the number of bacterial cells per one gram of feces, Strept. spp. (Streptococcus spp.) | Logarithmic value of the number of bacterial cells per one gram of feces, L. acidophilus [1] | Logarithmic value of the number of bacterial cells per one gram of feces, L. bifidus (Lactobacillus bifidus) | Logarithmic value of the number of bacterial cells per one gram of feces, Bacteroides (Bacteroides) | MIC, E. coli [2] | MIC, Staph. aureus [3] | Proliferation-inhibiting index (%), after adding S-9 mix [4] | Proliferation-inhibiting index (%), before adding S-9 mix [4] |
| --- | --- | --- | --- | --- | --- | --- | --- | --- | --- | --- |
| CC(=O)OC[C@H]1OC(OC(=O)[C@@H]2N3C(=O)[C@@H](NC(=O)COc4ccccc4)[C@H]3SC2(C)C)[C@H](OC(C)=O)[C@@H](OC(C)=O)[C@@H]1OC(C)=O (some centres unmarked) [Example 1] | 7.2 logarithmic value; cells per o | < 3.0 logarithmic value; cells per o | 6.8 logarithmic value; cells per o | 9.1 logarithmic value; cells per o | 8.6 logarithmic value; cells per o | 8.5 logarithmic value; cells per o | ≥ 200 µg/mL | 0.39 µg/mL (≈ 0.573 µM) | ± (0-1) | - (0) |
| COc1cccc(C=NC(C(=O)N[C@@H]2C(=O)N3[C@@H]2SC(C)(C)[C@@H]3C(=O)O)c2ccccc2)c1O (some centres unmarked) [Example 2, sodium 6-(3-methoxysalicylaldehydeiminophenyl-glycino)penicillanate] | 6.4 logarithmic value; cells per o | < 3.0 logarithmic value; cells per o | 6.5 logarithmic value; cells per o | 8.8 logarithmic value; cells per o | 8.3 logarithmic value; cells per o | 8.3 logarithmic value; cells per o | 6.25 µg/mL | 0.1 µg/mL | +++ (66-100) | ++ (33-66) |
| CC1(C)S[C@@H]2[C@H](NC(=O)C(N=Cc3cc([N+](=O)[O-])ccc3O)c3ccccc3)C(=O)N2[C@H]1C(=O)O (some centres unmarked) [Example 3] | 6.5 logarithmic value; cells per o | < 3.0 logarithmic value; cells per o | 6.8 logarithmic value; cells per o | 9.1 logarithmic value; cells per o | 8.4 logarithmic value; cells per o | 8.2 logarithmic value; cells per o | 12.5 µg/mL (≈ 25.1 µM) | 0.78 µg/mL (≈ 1.56 µM) | +++ (66-100) | ++ (33-66) |
| CC1(C)S[C@@H]2[C@H](NC(=O)C(N=Cc3ccccc3O)c3ccccc3)C(=O)N2[C@H]1C(=O)O (some centres unmarked) [Example 4, sodium 6-(salicylaldehydeiminophenylglycino)penicillanate] | 6.4 logarithmic value; cells per o | < 3.0 logarithmic value; cells per o | 6.5 logarithmic value; cells per o | 8.8 logarithmic value; cells per o | 8.8 logarithmic value; cells per o | 8.2 logarithmic value; cells per o | 12.5 µg/mL | 0.78 µg/mL | +++ (66-100) | ++ (33-66) |
| Cc1ncc(CO)c(C=NC(C(=O)N[C@@H]2C(=O)N3[C@@H]2SC(C)(C)[C@@H]3C(=O)O)c2ccccc2)c1O (some centres unmarked) [Example 6] |  |  |  |  |  |  | ≥ 100 µg/mL | ≥ 12.5 µg/mL | +++ (66-100) | ++ (33-66) |
| CC(=O)Nc1ccc(C(=O)N[C@@H](C(=O)N[C@@H]2C(=O)N3[C@@H]2SC(C)(C)[C@@H]3C(=O)O)c2ccccc2)cc1 [Example 7, 7-[N-(p-acetylaminobenzoicamido)-D-phenylglycineamido]penicillanic acid] | 6.5 logarithmic value; cells per o | < 3.0 logarithmic value; cells per o | 6.4 logarithmic value; cells per o | 9.0 logarithmic value; cells per o | 8.2 logarithmic value; cells per o | 8.0 logarithmic value; cells per o | ≥ 100 µg/mL | ≥ 12.5 µg/mL |  |  |
| CC(=O)Nc1ccc(C(=O)NCC(=O)N[C@@H](C(=O)N[C@@H]2C(=O)N3[C@@H]2SC(C)(C)[C@@H]3C(=O)O)c2ccccc2)cc1 [Example 8, 7-[N-(p-acetylaminohippuric acid amido)-O-phenylglycineamido]penicillanic acid] | 6.4 logarithmic value; cells per o | < 3.0 logarithmic value; cells per o | 6.7 logarithmic value; cells per o | 9.2 logarithmic value; cells per o | 8.5 logarithmic value; cells per o | 8.1 logarithmic value; cells per o | ≥ 100 µg/mL | ≥ 12.5 µg/mL |  |  |
| CCOCOC(=O)[C@@H]1N2C(=O)[C@@H](NC(=O)COc3ccccc3)[C@H]2SC1(C)C [Example 10] | 6.4 logarithmic value; cells per o | < 3.0 logarithmic value; cells per o | 6.6 logarithmic value; cells per o | 9.0 logarithmic value; cells per o | 8.4 logarithmic value; cells per o | 8.2 logarithmic value; cells per o | ≥ 25 µg/mL | 12.5 µg/mL (≈ 30.6 µM) |  |  |
